Measured values as given in patent US8580769B2, “Treatment of obesity, metabolic syndrome, and diabetes with protein kinase C inhibitors” (The United States of America as represented by the …, priority 2011, dated 2013).

Legend:
human hepatocytes = test: mRNA expression of lipogenic, inflammatory and glucogenic markers in human hepatocytes (RT-PCR); assay type: cell-based; conditions: for expression of G6 Pase / expression of PEPCK: hepatocytes of non-diabetic and T2DM humans, inhibitor alone or with insulin; for expression of ACC / expression of FAS / expression of IL-1β / expression of SREBP-1c / expression of TNF-α: hepatocytes of non-diabetic and/or T2DM humans
Experimental: After thawing, the hepatocytes were distributed (approximately 10^6 cells per 100 mm plate) and incubated approximately 16 hours overnight in Dulbecco's minimal essential medium containing 5% fetal calf serum, 100 units/ml sodium-penicillin, 100 μg/ml streptomycin-sulfate, 1 μM insulin and 2 μM dexamethasone. After washing, cells were incubated first for 2 hours in William's E medium (Sigma-Aldrich, St. Louis, Mo., catalog no. W1878) containing GLUTAMAX™ (Gibco/Invitrogen, Carlsbad, Calif.), 100 units/ml sodium-penicillin, 100 μg/ml streptomycin-sulfate, 10 μM insulin, 100 nM dexamethasone, and then for 2 hours in William's E medium containing 100 units/ml sodium penicillin, 100 μg/ml streptomycin-sulfate, 100 nM dexamethasone, 0.25 mg/ml transferrin, 0.25 μg/ml sodium selenite and 10 μM insulin. Cells were then washed and incubated for 3 hours in the same medium, but lacking insulin. Where indicated, an aPKC inhibitor was then added and incubation was continued for 30 min, after which, cells were treated either for 15 min with or without 100 nM insulin for acute signaling studies, […] After incubation, cells were sonicated in homogenizing buffer.
mRNA Measurements: As previously described (Sajan et al., J. Lipid Res. 50:1133-1145, 2009; Sajan et al., Diabetologia 52:1197-1207, 2009; Farese et al., J. Clin. Invest. 117:2289-2301, 2007), tissues were added to TRIZOL® reagent (Invitrogen) and RNA was extracted and purified with the RNEASY® Mini-Kit (Qiagen; Valencia, Calif.) and RNAase-free DNAase set (Qiagen) as per kit instructions, quantified by measuring A260/A280, further checked for purity by electrophoresis on 1.2% agarose gels, and mRNA quantified by quantitative real-time reverse transcriptase-polymerase chain reaction (RT-PCR). Reverse transcription was accomplished with TAQMAN® reverse transcription reagent from Applied Biosystems (Foster City, Calif., USA). mRNAs were measured with a SYBR® Green kit (Applied Biosystems) using the nucleotide primers shown in Table 1.

Het-MλKO mice = test: clinical parameters in Het-MλKO mice (model of obesity/metabolic syndrome/T2DM); assay type: in vivo, mouse; conditions: for hepatic triglycerides / resting (basal) serum insulin levels: 7-day treatment s.c. (ATM 60 mg/kg; ICAPP 0.4 mg/kg); for serum glucose levels following acute insulin treatment: insulin 1 U/kg i.p.; for basal serum glucose levels (before insulin): s.c. once daily (ICAPP 0.4 mg/kg; ICAP 0.5 mg/kg)
From the text: In Vivo Mouse Studies: Male wild type (WT) and heterozygous muscle-specific PKC-λ knockout (Het-MλKO) mice were generated as described (Farese et al., J. Clin. Invest. 117:2289-2301, 2007) and used at 6-12 months of age, when the O/MS/T2DM phenotype in MλKO mice is well-developed. Mice were housed in a temperature-controlled environment with alternating 12-hour light and dark cycles, and fed ad libitum with standard chow (Harlan Teklad 20/18 with 5% fat, (10% of calories from fat)). All experimental procedures in mice were approved by the Institutional Animal Care and Use Committees of the Roskamp Institute and the University of South Florida College of Medicine, and the James A. Haley Veterans Administration Medical Center Research and Development Committee, Tampa, Fla.
(ICAPP; prepared by Southern Research, Birmingham, Ala.) at 0.4 mg/kg body weight. On the morning of the eighth day of inhibitor treatment, mice were injected intraperitoneally (IP) with 0.9% saline or saline containing 1 U insulin/kg body weight 15 minutes before sacrifice, an optimal time for studies of insulin stimulation of aPKC and Akt in liver, muscle and adipose tissues (Standaert et al., J. Biol. Chem. 279:24929-24934, 2004; Sajan et al., J. Lipid Res. 50:1133-1145, 2009; Sajan et al., Diabetologia 52:1197-1207, 2009; Farese et al., J. Clin. Invest. 117:2289-2301, 2007). After killing, blood, liver, quadriceps muscle and abdominal adipose tissues were rapidly removed and homogenized in buffer with a POLYTRON® homogenizer.
Measurements of Serum Triglycerides, Cholesterol, Free Fatty Acids, Insulin and Glucose: Serum triglycerides, cholesterol, free fatty acids, insulin and glucose levels were measured as previously described (Sajan et al., J. Lipid Res. 50:1133-1145, 2009; Sajan et al., Diabetologia 52:1197-1207, 2009; Farese et al., J. Clin. Invest. 117:2289-2301, 2007).
Both aPKC inhibitors were tested in a murine model of O/MS/T2DM, a heterozygous muscle-specific PKC-λ knockout (Het-MλKO) mice, wherein defective insulin-stimulated glucose transport in muscle leads to glucose intolerance, systemic insulin resistance, hyperinsulinemia, increased hepatic aPKC activity, activation of hepatic SREBP-1c and IKKβ/NFκB, and thus to increased expression of hepatic enzymes engaged in lipogenesis and cytokine production, and ultimately to hepatosteatosis, abdominal obesity, hypertriglyceridemia, fatty acidemia, hypercholesterolemia, hyperinsulinemia, glucose intolerance, fasting hyperglycemia, and diminished glucose-lowering effects of acutely administered insulin (Sajan et al., J. Lipid Res. 50:1133-1145, 2009; Farese et al., J. Clin. Invest. 117:2289-2301, 2007).

[1] = Het-MλKO mice, s.c. once daily (ATM 60 mg/kg; ICAPP 0.4 mg/kg; ICAP 0.5 mg/kg)
[2] = non-diabetic human hepatocytes, 6 hours, 100 nM insulin, 100 nM ICAP
[3] = ICAP-treated Mλ-Het KO mice (n = 12), 0.5 mg/kg body weight/day x 8 days s.c., mean ± SEM

Row | Compound | expression of G6 Pase (human hepatocytes) | expression of PEPCK (human hepatocytes) | expression of ACC (human hepatocytes) | expression of FAS (human hepatocytes) | expression of IL-1β (human hepatocytes) | expression of SREBP-1c (human hepatocytes) | expression of TNF-α (human hepatocytes) | hepatic triglycerides (Het-MλKO mice; Het-MλKO mice) | resting (basal) serum insulin levels (Het-MλKO mice; Het-MλKO mice) | abdominal fat content (Het-MλKO mice; [1]) | serum cholesterol (Het-MλKO mice; [1]) | serum triglycerides (Het-MλKO mice; [1]) | serum glucose levels following acute insulin treatment (Het-MλKO mice; [1]) | basal serum glucose levels (before insulin) (Het-MλKO mice; Het-MλKO mice) | other results
1 | O=C([O-])CC([S][Au])C(=O)[O-] (centres unmarked) [ATM, aurothiomalate, reference compound] | insulin-like, or enhanced insulin, effects | insulin-like, or enhanced insulin, effects | diminished | diminished | diminished | diminished | diminished | decreased, virtually to normal | decreased, virtually to normal | decreased, virtually to normal | decreased, virtually to normal | decreased, virtually to normal | decreased, virtually to normal | – | –
2 | NC(=O)c1ncn([C@@H]2C[C@H](CO)[C@@H](O)[C@H]2O)c1N [ICAP, 1H-imidazole-4-carboxamide 5-amino-1-[2,3-dihydroxy-4-[hydroxymethyl]cyclopentyl]-[1R-(1α,2β,3β,4α)]] | – | – | – | – | – | – | – | – | – | diminished | diminished | diminished | diminished | diminished | effects on insulin-provoked aPKC activity and mRNA levels in hepatocytes of diabetic humans (human hepatocytes; hepatocytes of diabetic humans): Comparable results; insulin-provoked increase in ACC mRNA (human hepatocytes; [2]): inhibited; insulin-provoked increase in FAS mRNA (human hepatocytes; [2]): inhibited; insulin-provoked increase in IL-1β mRNA (human hepatocytes; [2]): inhibited; insulin-provoked increase in SREBP-1c mRNA (human hepatocytes; [2]): inhibited; insulin-provoked increase in TNF-α mRNA (human hepatocytes; [2]): inhibited; Abdominal fat (Het-MλKO mice; [3]): 26 ± 3.2 mg/g body weight; Ad lib-fed serum glucose (Het-MλKO mice; [3]): 139 ± 20 mg/dL; serum cholesterol (Het-MλKO mice; [3]): 108 ± 10 mg/dL; serum triglycerides (Het-MλKO mice; [3]): 104 ± 7 mg/dL
3 | NC(=O)c1ncn([C@@H]2C[C@H](COP(=O)(O)O)[C@@H](O)[C@H]2O)c1N [ICAPP, 1H-imidazole-4-carboxamide, 5-amino-1-[2,3-dihydroxy-4-[(phosphonooxy)methyl]cyclopentyl]-[1R-(1α,2β,3β,4α)]] | insulin-like, or enhanced insulin, effects | insulin-like, or enhanced insulin, effects | diminished | diminished | diminished | diminished | diminished | marked improvements | marked improvements | marked improvements | marked improvements | marked improvements | marked improvements | marked improvements | serum free fatty acids (Het-MλKO mice; Het-MλKO mice, ICAPP 0.4 mg/kg/day s.c., 7 days): marked improvements; food intake (Het-MλKO mice; Het-MλKO mice, ICAPP-treated): not altered
